Data as given in patent publication US6849602B1 (The Regents of the University of California, priority 1996, dated 2005).
Non-standard residues stand in square brackets, D forms with d. No end group written: not given here.

Columns and labels:
Selzer rat model = experiment: Hyperalgesia (hot plate withdrawal) in Selzer model rats; type: in vivo; details: intravenous at a dose of 200 mg/kg
Experimental: After induction of hyperalgesia by ligation of the sciatic nerve in one hind limb, the animals were injected with Prosaptide TX 14(A). Relief was measured using the hot plate withdrawal technique comparing ligated vs. unligated hind foot withdrawal. […] The relief lasted for up to 48 hours post injection.

STZ-diabetic rats = experiment: Nerve function, thermal response and body weight in STZ-diabetic rats; type: in vivo, rat; details: for decline in SNCV between weeks 4 and 8 of diabetes: 200 μg/kg i.p. thrice weekly beginning after 4 weeks of diabetes
Experimental: Control and STZ-diabetic rats were treated using 1000 μg prosaptide TX 14(A) per kg body weights i.p., three times per week for 8 weeks.
In this EXAMPLE, control and STZ-diabetic rats were treated with prosaptide TX 14(A) at doses of 20 μg/kg, 200 μg/kg, and 1000 μg/kg body weight, i.p., three times per week for 8 weeks. The rats were weighed at the beginning, midpoint and the end of the experiment and motor nerve conduction (MNCV) and sensor nerve conduction velocity (SNCV) measurements were taken at the three time points.
These deficits were attenuated by thrice weekly treatment (1 mg/kg i.p. for 8 weeks) with prosaptide (58.1±1.2 and 54.9±1.3 respectively).
This EXAMPLE was designed to determine whether prosaptide could also reverse conduction deficits and hyperalgesia in the formalin test pain model once these disorders are established in diabetic rats. SNCV was measured before onset of diabetes and 4-8 weeks later in groups of control, untreated diabetic and prosaptide-treated (200 μg/kg i.p. thrice weekly for the last 4 weeks) diabetic rats. Flinch responses to injection of formalin (50 μl or 0.5% or 5.0% solution) were followed for 60 min in control, 8 week untreated diabetic, 8 week diabetic treated with prosaptide (200 μg/kg i.p.) 30 min pre-test and 8 week diabetic treated with prosaptide (200 μg/kg i.p.) thrice weekly for the last 4 weeks (the last treatment being 48-72 hr pre-test).

taxol-treated mice = experiment: Loss of thermal sensation (Hargreaves) in taxol-treated mice; type: in vivo, mouse; details: 100 μg/kg, 200 μg/kg or 1 mg/kg
Experimental: Mice were administered taxol in order to induce sensory neuropathy.
The loss of thermal sensation was measured using a Hargreaves sensory testing apparatus as an indicator of sensory neuropathy.

[1] = 1 mg/kg i.p. thrice weekly for 8 weeks, diabetic rats

Substance: T[dA]LIDNNATEEILY [SEQ ID NO:2]
- duration of relief post injection (Selzer rat model): up to 48 hours
- relief of hyperalgesia (Selzer rat model): nearly complete relief of hyperalgesia
- time after injection to relief (Selzer rat model): ≤ 3 h
- thermal response latency (STZ-diabetic rats; 20 μg treatment group): intermediate response
- decline in SNCV between weeks 4 and 8 of diabetes (STZ-diabetic rats; listed as prosaptide): prevents any further decline in SNCV
- decline in SNCV between weeks 4 and 8 of diabetes (STZ-diabetic rats; listed as prosaptide TX 14(A)): halts progressive slowing of sensory conduction
- thermal hypoalgesia (STZ-diabetic rats; 1000 μg per kg i.p., three times per week for 8 weeks): prevented hypoalgesia
- hyperglycemia and loss of body weight (STZ-diabetic rats; 1000 μg per kg i.p., three times per week for 8 weeks (EXAMPLE XIV)): did not prevent hyperglycemia or loss of body weight
- MNCV (STZ-diabetic rats; [1]): 58.1±1.2 m/s
- SNCV (STZ-diabetic rats; [1]): 54.9±1.3 m/s
- thermal response latency (thermal hypoalgesia) (STZ-diabetic rats; [1]): 8.8 ± 0.6 s
- weight loss compared to diabetic animals (STZ-diabetic rats; 20, 200 and 1000 μg/kg i.p., three times per week for 8 weeks): significant decreases in weight loss in a dose dependent manner
- thermal response latency (STZ-diabetic rats; 200 and 1000 μg): restored to control non-diabetic levels
- motor nerve conduction velocities (STZ-diabetic rats; 200 and 1000 μg/kg, compared to untreated diabetic group and 20 μg/kg): enhanced motor nerve conduction velocities
- loss of sensory nerve conduction velocity (STZ-diabetic rats; all treated groups (20, 200, 1000 μg/kg)): slower loss of sensory nerve conduction velocity
- thermal hypoalgesia and decline in nerve conduction velocities during 8 weeks of diabetes (STZ-diabetic rats; time course study, thrice weekly 20, 200 or 1000 μg i.p.): attenuated by prosaptide in a dose-dependent manner
- loss of thermal sensation (taxol-treated mice): effective in inhibiting loss of thermal sensation
